Our source for the inhibition and IC50 values is patent publication US10668051B2, “Modulators of calcium release-activated calcium channel” (Rhizen Pharmaceuticals SA, priority 2009, dated 2020).

Holding throughout (format): cell-based
Test [1] deals with T1, CRAC channels (Homo sapiens (Human), UniProt Q96D31). Description: In-vitro CRAC channel inhibition assay in Jurkat cells (thapsigargin-induced calcium influx). Put shortly:
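Jurkat cells given test compounds in Ca2+/Mg2+-free Hanks buffer for 15 min, then thapsigargin (1 μM final) for 15 min to deplete ER stores. IC50 from percent inhibition of thapsigargin-induced Ca2+ influx.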

In test [2] the target is T1, CRAC channels. Description: In-vitro CRAC channel inhibition assay in NCI-H460 cancer cell line (Ca assay). Particulars: thapsigargin-induced calcium influx, NCI-H460 cells. The protocol:
1B. In-Vitro CRAC Channel Inhibition Assay in NCI-H460 Cancer Cell Line
Inhibition of CRAC channels was determined following thapsigargin (Sigma, Cat #T9033) induced endoplasmic calcium release in NCI-H460 cells (National Centre For Cell Science (NCCS), Pune).
Cells (30,000 per well) were plated overnight in complete RPMI medium. Medium was substituted with Ca^2+ and Mg^2+ free Hanks buffer and Fluo-8 NW dye (ABD Bioquest, Inc., Sunnyvale, Calif.) loading solution in 96-well black plate. Plate was incubated at 37° C./5% CO2 for 30 min followed by further 15 min incubation at room temperature. Test compounds (DMSO stocks diluted in Ca^2+ and Mg^2+ free Hanks buffer) at desired concentrations were added to the wells and incubated for 15 min. Thapsigargin (1 μM final concentration) was added to the wells and incubated for 15 min to inhibit the Sarco-endoplasmic reticulum Ca^2+ ATPase pump thereby depleting endoplasmic calcium and raising cytosolic calcium concentrations. Store-operated calcium entry was initiated by adding extracellular Ca^2+ to a final concentration of 2.5 mM. Fluorescence was monitored over 30 min on a plate reader (BMG Labtech., Germany) with excitation at 485 nm and an emission wavelength at 520 nm. Data were analyzed using GraphPad Prism. IC50 for each compound was determined based on the percent inhibition of Thapsigargin-induced calcium influx into cells.

Test [3] deals with NCI-H460 cancer cell line. The test can be described thus: In-vitro cell proliferation assay in NCI-H460 cancer cell line (MTT). Particulars: Homo sapiens, 48 h; for IC50: read-out: NCI-H460 Cell line assay G1 50 nM. How it is done: 1C. In-Vitro Cell Proliferation Assay in NCI-H460 Cancer Cell Line (Anticancer Activity)
Growth inhibition assays were carried out using 10% FBS supplemented media. Cells were seeded at a concentration of 5000 cells/well in a 96-well plate. Test compound at a concentration range from 0.01 to 10000 nM were added after 24 h. Growth was assessed using the 3-[4,5-dimethylthiazol-2-yl]-2,5-diphenyltetrazolium bromide (MTT) dye reduction test at 0 h (prior to the addition of the test compound) and 48 h after the addition of test compound. Absorbance was read on a Fluostar Optima (BMG Labtech, Germany) at a wave length of 450 nm. Data were analysed using GraphPad Prism. IC-50 for each compound was determined based on the % inhibition due to the test compound compared to the control.
For methods of cell proliferation assay, see, for example, Mosmann. T., Journal of Immunological Methods, 65(1-2), 55-63, (1983).

Test [4] relates to IL-2. The test can be described thus: Inhibition of cytokine release in Human Whole Blood: IL-2. Particulars: Con A + PMA, 20 h, ELISA, read-out: IC 50 Human Whole Blood IL-2. The protocol:
(§1) 2. In Vitro Inhibition of Cytokine Release in Jurkat Cells, Human Whole Blood and Peripheral Blood Mononuclear Cells (PBMC).
(§2) Inhibition of cytokine IL-2, IL-4, IL-5 and TNF α was determined as described below. • a. Inhibition of IL-2 in Jurkat cells: Cells were incubated with desired concentrations of the inhibitor for 15 min. Cytokine release was induced by the addition of Concanavalin A (25 μg/ml)+Phorbol Myristate Acetate (50 ng/ml) for IL-2 & TNFα or with Phytohemagglutinin ([…]) for IL-4 & IL-5 and incubated at 37° C. in an atmosphere containing […]. Supernatant was collected after 20 h (IL-2 & TNFα) or 48 h (IL-4 & IL-5) for estimation of cytokines by ELISA. Data were analysed using GraphPad Prism. IC50 values for each compound were determined based on the percent inhibition due to the test compound compared to the control. • b. Inhibition of cytokine release in Human Whole Blood (HWB): Freshly collected HWB was diluted with RPMI medium (1:4.5) and added to a 96-well plate. Wells were incubated with desired concentrations of the inhibitor for 15 min. Cytokine release was induced by the addition of Concanavalin A (25 μg/ml)+Phorbol Myristate Acetate (50 ng/ml) for IL-2 & TNFα or with Phytohemagglutinin (5 μg/ml) for IL-4 & IL-5 and incubated at 37° C. in an atmosphere containing […]. Supernatant was collected after 20 h (IL-2 & TNFα) or 48 h (IL-4 & IL-5) for estimation of cytokines by ELISA. Data were analysed using GraphPad Prism. IC50 values for each compound were determined based on the percent inhibition due to the test compound compared to the control. • c. Inhibition of cytokine release in PBMC: PBMC from freshly collected HWB were isolated by density gradient using Histopaque and seeded in a 96-well plate. Cells were incubated with desired concentrations of the inhibitor for 15 min. Cytokine release was induced by the addition of Concanavalin A (25 μg/ml)+Phorbol Myristate Acetate (50 ng/ml) for IL-2 & TNFα or with Phytohemagglutinin (5 μg/ml) for IL-4 & IL-5 and incubated at 37° C. in an atmosphere containing […]. Supernatant was collected after 20 h (IL-2 & TNFα) or 48 h (IL-4 & IL-5) for estimation of cytokines by ELISA. Data were analysed using GraphPad Prism. IC50 values for each compound were determined based on the percent inhibition due to the test compound compared to the control.

Test [5] relates to IL-4. Description: Inhibition of cytokine release in Human Whole Blood: IL-4. Particulars: Phytohemagglutinin, 48 h, ELISA, read-out: IC 50 Human Whole Blood IL-4. How it is done:
as §1, §2

Test [6] concerns TNFα. Description: Inhibition of cytokine release in Human Whole Blood: TNFα. Particulars: Con A + PMA, 20 h, ELISA, read-out: IC 50 Human Whole Blood TNFα. The protocol: as §1, §2
Test [7] relates to IL-2. The test can be described thus: Inhibition of IL-2 in Jurkat cells. Particulars: Homo sapiens, Con A + PMA, 20 h, ELISA, read-out: IC 50 Jurkat IL-2. The protocol: as §1, §2
Test [8] has as its system IL-2. The test can be described thus: Inhibition of cytokine release in PBMC: IL-2. Particulars: Homo sapiens, Con A + PMA, 20 h, ELISA, read-out: IC 50 PBMC IL-2. The protocol: as §1, §2
In test [9] the test system is IL-5. The test can be described thus: Inhibition of cytokine release in Human Whole Blood: IL-5. Particulars: Phytohemagglutinin, 48 h, ELISA, read-out: IC 50 Human Whole Blood IL-5. The protocol:
as §1, §2

Test [10] concerns TNFα. Description: Inhibition of cytokine release in PBMC: TNFα. Particulars: Homo sapiens, Con A + PMA, 20 h, ELISA, read-out: IC 50 PBMC TNFα. The protocol: as §1, §2
The subject of test [11] is IL-5. Description: Inhibition of cytokine release in PBMC: IL-5. Particulars: Homo sapiens, Phytohemagglutinin, 48 h, ELISA, read-out: IC 50 PBMC IL-5. How it is done: as §1, §2
Test [12] has as its system IL-4. The test can be described thus: Inhibition of cytokine release in PBMC: IL-4. Particulars: Homo sapiens, Phytohemagglutinin, 48 h, ELISA, read-out: IC 50 PBMC IL-4. The protocol: as §1, §2

SMILES strings stand for the structures.

T1 sequence (Q96D31 whole entry): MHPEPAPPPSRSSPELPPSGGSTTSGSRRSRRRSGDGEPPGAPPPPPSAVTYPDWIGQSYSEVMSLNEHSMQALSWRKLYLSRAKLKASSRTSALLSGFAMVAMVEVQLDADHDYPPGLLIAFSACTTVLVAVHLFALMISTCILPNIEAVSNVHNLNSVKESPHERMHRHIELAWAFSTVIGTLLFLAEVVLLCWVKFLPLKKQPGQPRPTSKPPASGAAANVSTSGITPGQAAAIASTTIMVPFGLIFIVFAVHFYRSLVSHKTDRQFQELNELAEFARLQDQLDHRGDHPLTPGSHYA

Regarding `Cc1nc(C)c(C(=O)Nc2ccc(-n3nc(C(F)(F)F)cc3C3CC3)cc2)s1` [Example 55, N-{4-[5-cyclopropyl-3-(trifluoromethyl)-1H-pyrazol-1-yl]phenyl}-2,4-dimethylthiazole-5-carboxamide], the inhibition at 1 µM at CRAC channels [1] and on CRAC channels [2] was 100% throughout. Besides, in test [3], the IC50 is 613 nM.
For `Cc1ncsc1C(=O)Nc1ccc(-n2nc(C3CC3)cc2C2CC2)cc1` [Example 2, N-[4-(3,5-dicyclopropyl-1H-pyrazol-1-yl)phenyl]-4-methylthiazole-5-carboxamide], the inhibition at 1 µM at CRAC channels [1] and at CRAC channels [2] was 100% each time. For the same molecule, the IC50 in [3] turned out to be 197 nM.
Regarding `O=C(Nc1ccc(-n2nc(C(F)(F)F)cc2C2CC2)c(F)c1)c1c(F)cccc1F` [Example 88, N-{4-[5-cyclopropyl-3-(trifluoromethyl)-1H-pyrazol-1-yl]-3-fluorophenyl}-2,6-difluorobenzamide], on CRAC channels [1], the inhibition at 1 µM turned out to be 100%. Also, the IC50 was found to be 229 nM in the test on IL-2 [4] and 260 nM in the test on IL-4 [5].
With `Cc1nnsc1C(=O)Nc1ccc(-n2nc(C3CC3)cc2C2CC2)cc1` [Example 1, N-[4-(3,5-dicyclopropyl-1H-pyrazol-1-yl)phenyl]-4-methyl-1,2,3-thiadiazole-5-carboxamide], the inhibition at 1 µM on CRAC channels [1] stood at 99%; at CRAC channels [2] it was 93.2%. For the same molecule, testing at 10 µM in [3] gave an inhibition of 31%. The IC50 was 338 nM in the test on IL-2 [4] and 1080 nM in the test on TNFα [6].
Take `C[C@]12C=CC(=O)C=C1CC[C@@H]1[C@@H]2[C@@H](O)C[C@@]2(C)[C@H]1CC[C@]2(O)C(=O)CO` [Prednisolone, reference compound]: the values for the IC50 in the test on IL-2 [7], in the test on IL-2 [4] and with IL-2 [8] were 35.5 nM, 77.2 nM and 3.72 nM, respectively.
Take `Cc1ncsc1C(=O)Nc1ccc(-n2nc(C(F)(F)F)cc2C2CC2)cc1` [Example 53, N-{4-[5-cyclopropyl-3-(trifluoromethyl)-1H-pyrazol-1-yl]phenyl}-4-methylthiazole-5-carboxamide]: the inhibition at 1 µM was 99.4% on CRAC channels [1] and 84.6% at CRAC channels [2]. In test [3], this molecule had an inhibition at 10 µM of 22%. Moreover, the IC50 with IL-2 [4] was found to be 274 nM; with TNFα [6], 125 nM; in the test with IL-5 [9], 61.8 nM; with IL-2 [8] it was 21.3 nM; in the test on TNFα [10], 121 nM; in the test on IL-5 [11], 146 nM. Besides, the IC50 in the test with IL-4 [12] worked out at 79.9 nM.
As to `O=C(Nc1ccc(-n2nc(C3CC3)cc2C2CC2)cc1)c1ccccc1` [Example 6, N-[4-(3,5-dicyclopropyl-1H-pyrazol-1-yl)phenyl]benzamide], the inhibition at 1 µM at CRAC channels [1] worked out at 41.3%; on CRAC channels [2], 86%. The molecule also showed an inhibition at 10 µM in test [3] of 35%.
In the case of `Cc1ncsc1C(=O)Nc1ccc(-n2nc(C(F)(F)F)cc2C2CC2)c(F)c1` [Example 83, N-{4-[5-cyclopropyl-3-(trifluoromethyl)-1H-pyrazol-1-yl]-3-fluorophenyl}-4-methylthiazole-5-carboxamide], the inhibition at 1 µM on CRAC channels [1] stood at 100%. Further, the IC50 in the test with IL-2 [7] was determined as 57.9 nM; with IL-2 [4] it was 132 nM; with TNFα [6] it was 546 nM; with IL-2 [8], 15.7 nM; in the test on TNFα [10] it was 86.8 nM; with IL-4 [12], 352 nM.
In the case of `O=C(Nc1ccc(-n2nc(C3CC3)cc2C2CC2)cc1)c1cccc(F)c1F` [Example 9, N-[4-(3,5-dicyclopropyl-1H-pyrazol-1-yl)phenyl]-2,3-difluorobenzamide], the inhibition at 1 µM was 98.6% at CRAC channels [1] and 86.8% at CRAC channels [2]. The inhibition at 10 µM in test [3] worked out at 14%.
Consider `Cc1nnsc1C(=O)Nc1ccc(-n2nc(C(F)(F)F)cc2C2CC2)cc1` [Example 52, N-{4-[5-cyclopropyl-3-(trifluoromethyl)-1H-pyrazol-1-yl]phenyl}-4-methyl-1,2,3-thiadiazole-5-carboxamide], for which the inhibition at 1 µM on CRAC channels [1] is 100%; on CRAC channels [2], 78.2%. Further, in test [3], the inhibition at 10 µM stood at 34%.
With `Cc1nnsc1C(=O)Nc1ccc(-n2nc(C3CC3)cc2C2CC2)c(F)c1` [Example 28, N-[4-(3,5-dicyclopropyl-1H-pyrazol-1-yl)-3-fluorophenyl]-4-methyl-1,2,3-thiadiazole-5-carboxamide], the inhibition at 1 µM on CRAC channels [1] is 100%. Moreover, the IC50 turned out to be 600 nM with IL-2 [4], 46.3 nM with IL-5 [9], 54.3 nM in the test on IL-2 [8] and 198 nM with IL-5 [11].
Turning to `O=C(Nc1ccc(-n2nc(C(F)(F)F)cc2C2CC2)nc1)c1ccccc1F` [Example 106, N-(6-(5-cyclopropyl-3-(trifluoromethyl)-1H-pyrazol-1-yl)pyridin-3-yl)-2-fluorobenzamide], on CRAC channels [1], the inhibition at 1 µM is 100%. Moreover, the IC50 with IL-2 [7] turned out to be 60.5 nM; in the test with IL-2 [4], 83.6 nM; in the test on IL-2 [8], 11.5 nM; in the test with TNFα [10], 105 nM.
`Cc1ccccc1C(=O)Nc1ccc(-n2nc(C(F)(F)F)cc2C2CC2)nc1` [Example 104, N-{6-[5-cyclopropyl-3-(trifluoromethyl)-1H-pyrazol-1-yl]pyridin-3-yl}-2-methylbenzamide]: at CRAC channels [1], the inhibition at 1 µM was determined as 100%. Also, the IC50 in the test with IL-2 [7] was determined as 57.5 nM; in the test on IL-2 [4] it was 96.1 nM; with TNFα [6], 582 nM; with IL-2 [8] it was 66.7 nM; with TNFα [10], 21.1 nM.
